Structures can show the parent of a compound that is named as a salt. Where two headings read alike, the source gives them in different places.
How the values were obtained:
[1] = target: class A β-lactamase TEM-1 (Escherichia coli, UniProt P62593); assay: β-Lactamase inhibition, IC50 determination (nitrocefin, spectrophotometric); assay type: biochemical, E. Coli
Experimental: (§1) IC50 Determination for the Penem Inhibitor
(§2) β-Lactamase inhibitory activity of the penem inhibitors was determined spectrophotometrically as described by Bush et al., [Bush, K., Macalintal, C., Rasmussen, B. A., Lee, V. and Yang, Y. Antimicrobial Agents and Chemotherapy 1993, 37, 851]. Homogeneously purified class A β-lactamases TEM-1 from E. Coli and Imi-1 from Enterobacter cloacae, class B enzyme CcrA from Bacteroides fragilis and class C enzyme AmpC from Enterobacter cloaca were employed in the assay. The enzyme concentrations for TEM-1, Imi-1, CcrA and AmpC were 4.3, 7.1, 1.2 and 2.1 nM, respectively. A wide range of inhibitor concentrations were prepared in 50 mM PO4, pH 7.0 to include the possible IC50 values. The substrate used to initiate the enzyme reaction was nitrocefin at 50 μg/ml in the same buffer as the inhibitor. Initially the enzyme and inhibitor (20 μl each) were preincubated for 10 minutes at 25° C. prior to the addition of 160 μl volume of nitrocefin. Initial rates of hydrolysis were monitored for 5 minutes at 495 nm using a Molecular Devices Spectra Max 250 with kinetic protocol of SoftMax Program. Readings from the Spectra Max 250 were exported and transferred to Microsoft Excel. The percent of inhibition of each inhibitor concentration was calculated based on the control enzyme activity. The inhibitor concentration that caused a 50% reduction in the enzymatic activity (IC50) was determined graphically.

[2] = target: class A β-lactamase Imi-1 (Enterobacter cloacae, UniProt Q46991); assay: as above; assay type: biochemical
class A β-lactamase Imi-1, sequence (Q46991 entry or part of it): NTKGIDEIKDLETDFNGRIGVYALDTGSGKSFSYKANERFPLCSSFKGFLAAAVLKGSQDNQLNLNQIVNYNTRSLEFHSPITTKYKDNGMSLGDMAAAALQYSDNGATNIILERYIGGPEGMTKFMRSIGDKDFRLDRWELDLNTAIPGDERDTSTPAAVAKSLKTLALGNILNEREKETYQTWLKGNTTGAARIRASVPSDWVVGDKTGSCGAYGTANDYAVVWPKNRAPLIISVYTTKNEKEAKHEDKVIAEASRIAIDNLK
Experimental: as §1, §2

[3] = target: class B enzyme CcrA (Bacteroides fragilis, UniProt P25910); assay: as above; assay type: biochemical; conditions: read-out: IC50 (nM) Class B Ccr
class B enzyme CcrA, sequence (P25910 19-249): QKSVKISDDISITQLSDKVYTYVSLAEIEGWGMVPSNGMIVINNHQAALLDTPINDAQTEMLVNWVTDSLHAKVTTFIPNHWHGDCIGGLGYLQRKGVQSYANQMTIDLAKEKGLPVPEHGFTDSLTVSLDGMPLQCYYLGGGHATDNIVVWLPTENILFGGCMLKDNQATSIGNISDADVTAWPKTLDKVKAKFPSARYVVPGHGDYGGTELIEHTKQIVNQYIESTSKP
Experimental: as §1, §2

[4] = target: class C enzyme AmpC (Enterobacter cloacae, UniProt P05364); assay: biochemical; design: species or system Enterobacter cloaca
class C enzyme AmpC, sequence (P05364 21-381): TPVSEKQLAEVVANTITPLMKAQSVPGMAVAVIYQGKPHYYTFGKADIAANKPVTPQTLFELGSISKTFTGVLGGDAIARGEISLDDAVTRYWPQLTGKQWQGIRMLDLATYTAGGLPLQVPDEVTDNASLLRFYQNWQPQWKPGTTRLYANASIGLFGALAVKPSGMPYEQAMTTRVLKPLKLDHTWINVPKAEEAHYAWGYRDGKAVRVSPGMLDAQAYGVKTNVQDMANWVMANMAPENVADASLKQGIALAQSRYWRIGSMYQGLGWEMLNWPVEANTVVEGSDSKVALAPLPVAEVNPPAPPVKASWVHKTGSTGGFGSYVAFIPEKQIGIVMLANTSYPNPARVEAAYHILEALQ
Experimental: as §1, §2

[5] = tested on: Clinical isolates that have been adapted to cause infection in mice; assay: In vivo antibacterial protection (7 day survival of infected mice, ED50); design: species or system mice strain CD-1; conditions: Mus musculus, 168 h
Excerpt: In Vivo Antibacterial Protection
Female mice strain CD-1, approximately 18-22 grams, were received from Charles River Laboratories and quarantined 7 days prior to use. In addition, mice may be rendered neutropenic using cytoxan for particular studies.
Clinical isolates that have been adapted to cause infection in mice, are used in the experiment, including infections with strains of E. coli, K. pneumoniae, M. morganii, E. cloacae, S. marcescens, C. freundii, staphylococci, streptococci, P. aeruginosa and N. gonorrhoeae.
Mice are challenged by injecting 0.5 ml intraperitoneally or 0.05 ml intranasally of a predetermined bacterial inoculum suspended in broth, saline or hog gastric mucin (supplemented with dried bovine hemoglobin for N. gonorrhoeae). […] Antibacterial doses (dose concentration prepared by two fold serial dilutions of the antibiotic) are dissolved or suspended in 0.2% aqueous agar or methocel, phosphate buffered saline or an adjuvant are administered orally, subcutaneously or intravenously in the following manner: • a) Orally or subcutaneously: Dose volume of 0.5 ml administered ½ hr after infection. A second dose may be administered 3 hr. after infection for treatment of infections with more virulent organisms. • b) Intravenously: Dose volume of 0.2 ml, administered ½ hr. after infection. For the treatment of infections with more virulent organisms, more doses, up to 48 hr may be administered. (Intravenous dosing will not exceed 3 doses/24 hr period.) • c) Oral pretreatment: Under special circumstances, the pH of the stomach needs to be adjusted in order to increase the gastric stability of the antibiotic. For this purpose, 0.5 ml of phosphate buffered saline (pH7.8, 0.06M) (or specific approved adjuvant) is administered orally ½ hr after infection, followed 5 minutes later by 0.5 ml of antibiotic (also orally) contained in phosphate buffered saline (pH7.8, 0.06M). Animal Species
A detailed explanation as to the number of animals needed for the determination of in vivo efficacy follows: • A) Novel antibiotics are tested at 5 different dose levels with 5 mice per dose level at each of three routes of administration (oral, subcutaneous and intravenous). […] This would require 25 mice/route with 3 routes/antibiotic or 75 mice per novel compound tested. One to two novel antibiotics will be tested per experiment (75-150 mice) • B) The effectiveness of the new compound must be compared to that of a standard, or antibiotic of known effectiveness. Known or previously tested antibiotics are tested at 5 dose levels with 5 mice per dose level by a single route of administration, for a total of 25 mice/antibiotic. Usually 3-6 antibiotics will be tested per experiment. (75-150 mice). • C) Untreated controls—In each of the above tests, untreated animals are infected with 3 different concentrations of bacterial inoculum with 10 mice per concentration (30 mice total in each and every test). These untreated controls are used to determine and maintain the infection level between 10-100 LD50s as required for test to test comparison and validity. Determination of Protective Effects of Antibacterial Agents:
The protective effects of the antibacterial agent(s) are measured by the survival of the infected untreated as compared to the treated animals. For this determination, animals are observed for 7 days after treatment. A census of survivors is taken twice daily and at that time dead as well as moribund animals are removed. The 7 day survival ratio from three separate tests are pooled for estimation of median effective dose (ED50) by computerized program for probit analysis (Cleeland, R. and E. Squires. 1991. Evaluation of New Antimicrobials in Vitro and in Experimental Animal Infections. In Antibiotics in Laboratory Medicine”, 3rd. ed., edited by Victor Lorian. Willams and Wilkins Baltimore, Md. pp. 752-783). […]

[6] = tested on: S. aureus GC2216; assay: Antimicrobial susceptibility testing, microbroth dilution MIC of piperacillin + inhibitor; assay type: cell-based; conditions: piperacillin combined with constant 4 μg/ml inhibitor; Inc: 35° C. for 18 hours
Experimental: (§3) Antimicrobial susceptibility testing. The in vitro activities of the antibiotics were determined by the microbroth dilution method as recommended by the National Committee for Clinical Laboratory Standards (NCCLS). (NCCLS. 2000. Methods for Dilution Antimicrobial Susceptibility Tests for Bacteria That Grow Aerobically; Approved Standards: M7-A5, vol. 19. National Committee for Clinical Laboratory Standards, Villanova, Pa.). Mueller-Hinton it broth (MHBII)(BBL Cockeysville, Md.), was used for the testing procedure. Microtiter plates containing 50 μl per well of two-fold serial dilutions of piperacillin combined with a constant amount (4 μg/ml) of a B-lactamase inhibitor (final concentration) were inoculated with 50 μl of inoculum to yield the appropriate density (10^5 CFU/ml) in 100 μl. The plates were incubated for 18-22 hours at 35° C. in ambient air.

[7] = tested on: E. Coli GC2203; assay: as above; assay type: cell-based; conditions: piperacillin combined with constant 4 μg/ml inhibitor; Inc: 35° C. for 18 hours
Experimental: as §3

[8] = tested on: E. Coli GC2847 (TEM-1); assay: as above; assay type: cell-based; conditions: piperacillin combined with constant 4 μg/ml inhibitor; Inc: 35° C. for 18 hours
Experimental: as §3

[9] = tested on: S. Marcescens GC1781 Sme-1 + Ampc; assay: as above; assay type: cell-based; conditions: piperacillin combined with constant 4 μg/ml inhibitor; Inc: 35° C. for 18 hours
Experimental: as §3

[10] = tested on: E. Coli GC2894 (Ampc); assay: as above; assay type: cell-based; conditions: piperacillin combined with constant 4 μg/ml inhibitor; Inc: 35° C. for 18 hours
Experimental: as §3

[11] = tested on: P. aeruginos GC1764 (Ampc); assay: as above; assay type: cell-based; conditions: piperacillin combined with constant 4 μg/ml inhibitor; Inc: 35° C. for 18 hours
Experimental: as §3

[12] = tested on: E. Cloacae GC1477 (Ampc); assay: as above; assay type: cell-based; conditions: piperacillin combined with constant 4 μg/ml inhibitor; Inc: 35° C. for 18 hours
Experimental: as §3

[13] = tested on: E. Coli GC2844; assay: as above; assay type: cell-based; conditions: piperacillin combined with constant 4 μg/ml inhibitor; Inc: 35° C. for 18 hours
Experimental: as §3

[14] = tested on: E. Coli GC2920 (IRT-2); assay: as above; assay type: cell-based; conditions: piperacillin combined with constant 4 μg/ml inhibitor; Inc: 35° C. for 18 hours
Experimental: as §3

[15] = enzyme 4.3 nM, 10 min preincubation at 25° C., nitrocefin 50 μg/ml, 50 mM PO4, pH 7.0, read-out: IC50 (nM) Class A TEM-1
[16] = enzyme 1.2 nM, 10 min preincubation at 25° C., nitrocefin 50 μg/ml, 50 mM PO4, pH 7.0
[17] = Ratio of Piperacillin Inhibitor 2:1, read-out: ED50
[18] = Ratio of Piperacillin Inhibitor 4:1, read-out: ED50
[19] = enzyme 7.1 nM, 10 min preincubation at 25° C., nitrocefin 50 μg/ml, 50 mM PO4, pH 7.0, read-out: IC50 (nM) Class A Imi
[20] = enzyme 2.1 nM, 10 min preincubation at 25° C., nitrocefin 50 μg/ml, 50 mM PO4, pH 7.0, read-out: IC50 (nM) Class C AmpC

class A β-lactamase TEM-1, sequence (P62593 24-286 limits assumed): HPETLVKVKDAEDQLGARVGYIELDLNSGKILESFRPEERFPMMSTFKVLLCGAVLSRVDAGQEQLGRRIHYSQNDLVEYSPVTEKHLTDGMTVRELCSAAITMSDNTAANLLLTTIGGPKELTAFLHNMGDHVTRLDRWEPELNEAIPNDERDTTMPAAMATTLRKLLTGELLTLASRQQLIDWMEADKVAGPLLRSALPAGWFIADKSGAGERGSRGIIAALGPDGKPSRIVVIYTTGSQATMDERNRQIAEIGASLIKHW

| Structure (SMILES) | IC50 [1, 15] | IC50 [2] | IC50 [3, 16] | IC50 [4] | ED50 [5, 17] | IC50 [1] | ED50 [5, 18] | other results |
| --- | --- | --- | --- | --- | --- | --- | --- | --- |
| O=C(O)C1=CS[C@@H]2/C(=C\c3cn4c(n3)sc3ccccc34)C(=O)N12 [Example 1, (5R,6Z)-6-(Imidazo[2,1-b][1,3]benzothiazol-2-ylmethylene)-7-oxo-4-thia-1-azabicyclo[3.2.0]hept-2-ene-2-carboxylic acid] | 10 nM | 160 nM | 350 nM | 1.4 nM | 32 to 64 mg/kg |  |  |  |
| COc1ccc2c(c1)sc1nc(/C=C3/C(=O)N4C(C(=O)O)=CS[C@H]34)cn12 [Example 2] | 18 nM | 180 nM | 250 nM | 2.4 nM | > 64 mg/kg |  |  |  |
| O=C(O)C1=CS[C@@H]2/C(=C\c3cn4c(ccc5ccccc54)n3)C(=O)N12 [Example 4, (5R),(6Z)-6-Imidazo[1,2-a]quinolin-2-ylmethylene-7-oxo-4-thia-1-azabicyclo[3.2.0]hept-2-ene-2-carboxylic acid] |  | 90 nM | 900 nM | 2.1 nM | 32 to 64 mg/kg | 6 nM |  |  |
| O=C(O)C1=CS[C@@H]2/C(=C\c3cn4c(n3)nc3n4CCCC3)C(=O)N12 [Example 8, (5R), (6Z)-6-(4,5,6,7-tetrahydro-1,3a,3b,8-tetraaza-cyclopenta[a]indene-2-ylmethylene)-7-oxo-4-thia-1-aza-bicyclo[3.2.0]hept-2-ene-2-carboxylic acid sodium salt] |  | 15 nM | 450 nM | 1.4 nM |  | 2.4 nM | 16 to 64 mg/kg |  |
| CCOc1nc2nc(C=C3C(=O)N4C(C(=O)O)=CSC34)cn2c2c1CCC2 (stereo not shown) [Example 10, 6-(5-ethoxy-7,8-dihydro-6H-3,4,8b-triaza-as-indacen-2-ylmethylene)-7-oxo-4-thia-1-aza-bicyclo[3.2.0]hept-2-ene-2-carboxylic acid] |  | 35 nM | 140 nM | 5.8 nM |  | 48 nM | 55.6 mg/kg |  |
| O=C([O-])C1=CS[C@@H]2C(=Cc3cc4n(n3)Cc3ccccc3OC4)C(=O)N12.[Na+] [Example 11, (5R,6E&Z)-7-oxo-6-(4H,10H-pyrazolo[5,1-c][1,4]-benzoxazepin-2-ylmethylene)-4-thia-1-azabicyclo[3.2.0]hept-2-ene-2-carboxylic acid, sodium salt] | 1.4 nM |  | 62 nM |  |  |  |  | IC50 [2, 19]: 78 nM; Minimal Inhibitory Concentration S. aureus GC2216 [6]: <0.06 µg/mL; Minimal Inhibitory Concentration E. Coli GC2203 [7]: 1 µg/mL; Minimal Inhibitory Concentration E. Coli GC2847 (TEM-1) [8]: 8 µg/mL; Minimal Inhibitory Concentration S. Marcescens GC1781 Sme-1 + Ampc [9]: 1 µg/mL; Minimal Inhibitory Concentration E. Coli GC2894 (Ampc) [10]: 4 µg/mL; Minimal Inhibitory Concentration P. aeruginos GC1764 (Ampc) [11]: 16 µg/mL; Minimal Inhibitory Concentration E. Cloacae GC1477 (Ampc) [12]: 32 µg/mL; Minimal Inhibitory Concentration E. Coli GC2844 [13]: 1 µg/mL; Minimal Inhibitory Concentration E. Coli GC2920 (IRT-2) [14]: 1 µg/mL; IC50 [4, 20]: 3.6 nM |
| O=C(O)C1=CS[C@@H]2/C(=C\c3cn4c(n3)-c3ccccc3C4)C(=O)N12 [Example 12, (5R), (6Z)-6-(5H-Imidazo[2,1-a]isoindol-2-ylmethylene)-7-oxo-4-thia-1-aza-bicyclo[3.2.0]hept-2-ene-2-carboxylic acid sodium salt] |  | 6.4 nM | 42 nM | 28 nM |  | 2.6 nM | 50 mg/kg |  |
| O=C(O)C1=CS[C@@H]2/C(=C\c3cn4c(n3)sc3cc(F)ccc34)C(=O)N12 [Example 14] |  | 270 nM |  | 2.4 nM |  | 8.1 nM |  | IC50 ([3]; pH 7): 370 nM; ED50 ([5]; Ratio of Piperacillin Inhibitor not given, read-out: ED50): > 64 mg/kg |
| O=C(O)C1=CS[C@@H]2/C(=C\c3ccc4c(c3)sc3nccn34)C(=O)N12 [Example 16, (5R),(6Z)-6-(imidazo[2,1-b]bebzothiazol-7-ylmethylene)-7-oxo-4-thia-1-azabicyclo[3.2.0]hept-2-ene-2-carboxylic acid] | 4.5 nM |  | 130 nM |  |  |  |  | IC50 [2, 19]: 70 nM; Minimal Inhibitory Concentration S. aureus GC2216 [6]: 0.05 µg/mL; Minimal Inhibitory Concentration E. Coli GC2203 [7]: 4 µg/mL; Minimal Inhibitory Concentration E. Coli GC2847 (TEM-1) [8]: 64 µg/mL; Minimal Inhibitory Concentration S. Marcescens GC1781 Sme-1 + Ampc [9]: 1 µg/mL; Minimal Inhibitory Concentration E. Coli GC2894 (Ampc) [10]: 32 µg/mL; Minimal Inhibitory Concentration P. aeruginos GC1764 (Ampc) [11]: 32 µg/mL; Minimal Inhibitory Concentration E. Cloacae GC1477 (Ampc) [12]: >64 µg/mL; Minimal Inhibitory Concentration E. Coli GC2844 [13]: 2 µg/mL; Minimal Inhibitory Concentration E. Coli GC2920 (IRT-2) [14]: 2 µg/mL; IC50 [4, 20]: 9.5 nM |

— patent publication US7691842B2, “Tricyclic 6-alkylidene-penems as β-lactamase inhibitors” (Wyeth LLC, priority 2002, dated 2010)
